Laboratory results taken from PubChem BioAssay (NCI).
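Results reflect a 48-hour exposure of cells in 96-well plates to compound at five concentrations. Abbreviation: GI50, concentration required for 50% inhibition of growth. Definition used: TGI = concentration required for complete inhibition of growth.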

What was measured:
Assay in all cases: growth of human tumour cells (NCI), 48 h
HOP-62 NSCLC = test system: HOP-62 NSCLC
MALME-3M melanoma = test system: MALME-3M melanoma
COLO 205 colon = test system: COLO 205 colon
786-0 renal = test system: 786-0 renal
SNB-19 CNS = test system: SNB-19 CNS
NCI-H226 lung = test system: NCI-H226 lung
UACC-62 melanoma = test system: UACC-62 melanoma
SF-539 CNS = test system: SF-539 CNS
CCRF-CEM leukemia = test system: CCRF-CEM leukemia
MDA-MB-435 = test system: MDA-MB-435

Compound	TGI (HOP-62 NSCLC)	TGI (MALME-3M melanoma)	TGI (COLO 205 colon)	TGI (786-0 renal)	TGI (SNB-19 CNS)	TGI (NCI-H226 lung)	TGI (UACC-62 melanoma)	TGI (SF-539 CNS)	TGI (CCRF-CEM leukemia)	GI50 (HOP-62 NSCLC)	GI50 (MALME-3M melanoma)	GI50 (786-0 renal)	GI50 (SNB-19 CNS)	GI50 (NCI-H226 lung)	GI50 (UACC-62 melanoma)	GI50 (SF-539 CNS)	GI50 (CCRF-CEM leukemia)	GI50 (COLO 205 colon)	GI50 (MDA-MB-435)	TGI (MDA-MB-435)
S=c1sc2c(n1-c1ccccc1)NC=NC2S (stereo unspecified)	> 100 µM	> 100 µM	> 100 µM	> 100 µM	> 100 µM	> 100 µM	> 100 µM	> 100 µM	> 100 µM											
COc1nc(NC2OC(COC(C)=O)C(OC(C)=O)C(OC(C)=O)C2OC(C)=O)c2c(OC(C)=O)cc(=O)oc2n1 (stereo unspecified)	> 100 µM	> 100 µM	> 100 µM	> 100 µM	> 100 µM	> 100 µM	> 100 µM	> 100 µM	> 100 µM											
COc1ccc(C2[C@@H](c3ccccc3)C(=O)N2c2cc(OC)c(OC)c(OC)c2)cc1F (stereo partly specified)	> 100 µM	> 100 µM		> 100 µM	> 100 µM	> 100 µM	> 100 µM	0.0706 µM	> 100 µM	0.0379 µM	> 100 µM	0.0314 µM	0.0499 µM	0.035 µM	0.0543 µM	0.0234 µM	0.0361 µM			
N#C/C(=C\c1cccc(Cl)c1Cl)c1ccccc1	60.9 µM	> 70 µM	> 100 µM	65.2 µM	> 90.7 µM	> 100 µM	> 100 µM	53.3 µM	> 46.4 µM											
CC(C)(C)c1cc2c(O)c3cccc4c(=O)c5cccc6c5-c(c34)c2c(c1)c6=O	> 100 µM	> 100 µM	> 100 µM	> 100 µM	> 100 µM	> 100 µM	> 100 µM		> 100 µM											
Cc1cccc(C)c1NC(=O)CCCC(=O)C1/C(=N/NC(=O)CC#N)CCC/C1=N\NC(=O)CC#N (stereo unspecified)	> 100 µM	> 100 µM	> 100 µM	> 100 µM	> 100 µM	> 100 µM	> 100 µM	> 100 µM	> 100 µM											
O=C(/C=C/c1ccc([N+](=O)[O-])cc1)c1ccc(NCc2nc3ccccc3[nH]2)cc1	26.7 µM	28.3 µM	7.71 µM	10.8 µM	14.5 µM		26 µM	8.08 µM	6.16 µM											
Nc1cc(NN=C(c2ccc(O)cc2)c2ccc(O)cc2)c([N+](=O)[O-])cc1[N+](=O)[O-]	3.98 µM	5.96 µM	4.49 µM	3.43 µM	7.12 µM		3.01 µM	3.85 µM	6.13 µM	2.13 µM	2.45 µM	1.83 µM	2.32 µM		1.66 µM	1.7 µM	2.54 µM	1.85 µM	1.7 µM	3.44 µM
C=CC[C@H](C[C@H](C[C@H](C[C@H](C[C@H](C[C@H](C[C@H](C[C@H](C[C@H](C[C@H](CCCCC)OC)OC)OC)OC)OC)OC)OC)OC)OC)OC	> 100 µM	> 100 µM	> 100 µM	> 100 µM	> 100 µM	> 100 µM	> 100 µM	> 100 µM	> 100 µM											
C/C(=N/Nc1ccc([N+](=O)[O-])cc1[N+](=O)[O-])C(CC(C(=O)NCc1ccccc1)/C(C)=N\Nc1ccc([N+](=O)[O-])cc1[N+](=O)[O-])C(=O)NCc1ccccc1 (stereo unspecified)	13.9 µM	30.8 µM	27.8 µM	13.1 µM	31 µM	25.8 µM	28.4 µM	14.9 µM												
C=C(C)CCOC(c1ccccc1)(c1ccccc1)c1ccccc1	> 100 µM	> 100 µM	> 100 µM	> 100 µM	> 100 µM	97.8 µM	> 100 µM	> 100 µM	> 100 µM											
COc1ccc(/C=N/NC(=O)c2cccc3cc[nH]c23)cc1O	> 100 µM	> 100 µM	> 80.7 µM	> 100 µM	> 100 µM	> 33.7 µM	> 35.1 µM	> 100 µM	> 28.5 µM	11.2 µM	1.96 µM	5.13 µM	4.07 µM	6.28 µM	0.878 µM	1.85 µM	1.93 µM	13.9 µM		
CCc1c(OC(C)=O)c2c(NC3OCC(OC(C)=O)C(OC(C)=O)C3OC(C)=O)nc(SC)nc2oc1=O (stereo unspecified)	> 100 µM	> 100 µM	> 100 µM	> 100 µM	> 100 µM	> 100 µM	> 100 µM	> 100 µM	> 100 µM											
O=c1ccc2ccccc2cc1[O-].O=c1ccc2ccccc2cc1[O-].[O]=[U+2]=[O]	53.8 µM	26.3 µM	71.7 µM	40.8 µM			39.6 µM		> 100 µM	23.9 µM	5.72 µM	15 µM			16.9 µM		6.14 µM	25.3 µM		
